Where “and” joins values, the source holds several entries; their conditions need not be identical. Equal values may be shown once.
Experiments:
[1] = Plasma concentration of tradipitant 2 hours post-dose in dogs; assay type: in vivo, beagle dog; conditions: individual dogs
Protocol: All animals are dosed over a period of five (5) weeks, with each dog receiving one of five different treatments on each day of dosing. […] In cases where apomorphine is administered alone, without prior treatment with tradipitant or aprepitant, apomorphine is given at approximately the same time as when given in combination with tradipitant or aprepitant.

[2] = tested on: patients with idiopathic and diabetic gastroparesis; test: Phase II study VLY-686-2301, double blind randomized portion (Example 5); assay type: in vivo, human; conditions: for CGI-S, change from baseline / DD-% Nausea Free Days, change from baseline / DD-Nausea (Daily Diary Nausea Score, 0-5), change from baseline / GCSI, change from baseline / PAGI-SYM, change from baseline / PGI-C: 4 weeks; for Daily Diary Nausea Weekly Average, Effect size estimate: tradipitant treatment arm
Description: In a phase II study of tradipitant in patients with idiopathic and diabetic gastroparesis, participants enter a 4 week screening period prior to treatment with tradipitant, during which they answer a daily symptom questionnaire rating their nausea severity on a scale of 0 to 5, in which 0 represents no nausea, 1 represents very mild nausea, 2 represents mild nausea, 3 represents moderate nausea, 4 represents severe nausea, and 5 represents very severe nausea. After the 4 week screening period, 141 gastroparesis patients in an Intent to Treat (ITT) population enter the 4 week double blind randomized portion of the study, in which they receive either tradipitant 85 mg bid, or placebo. Several symptom severity scales are used to assess gastroparesis symptoms, including the […] (GCSI), Patients Assessment of Upper Gastrointestinal Disorders-Symptoms (PAGI-SYM), and Patient Global Impression of Change (PGI-C), as well as a Clinician Global Impression of Severity (CGI-S). After 4 weeks of blinded study drug treatment, patients have the opportunity to enter an additional 8 week open label extension, during which each subject receives tradipitant 85 mg bid.
Abbreviations used in Table 6 include: Daily Diary Nausea Score, 0-5 (DD-Nausea); Daily Diary Nausea Free Days, percent 0-100 (DD-% Nausea Free Days); Intent to Treat (ITT); Gastroparesis Cardinal Symptom Index (GCSI); Patient Assessment of Gastrointestinal Disorders-Symptoms (PAGI-SYM); Clinician Global Impression of Severity (CGI-S); Patient Global Impression of Change (PGI-C). For DD-Nausea, DD-% Nausea Free Days, GCSI, PAGI-SYM and CGI-S, the values shown are changes from baseline.

NK-1 receptor = molecular target: T1, NK-1 receptor (Cavia porcellus, UniProt P30547); test: GR73632-induced vocalization in guinea pigs; assay type: in vivo, guinea pig
T1 construct: from tissue; host or cells: living guinea pigs (central NK-1 receptors)
Protocol: Male Dunkin/Hartley guinea pigs (200 to 250 grams) are orally administered either vehicle or an NK-1 antagonist. Approximately 45 minutes later (for dose response studies), the animals are anesthetized and 0.1 nmol of GR73632 (SP analog) in a vehicle volume of 5 μl is injected into the cerebral ventricle at the intersection of bregma and the midline of the skull. Animals are placed in a dark testing chamber located inside of a sound attenuation cubicle and vocalizations are recorded for 30 minutes following recovery from anesthesia. The time spent vocalizing is quantified for each animal. In the duration of action study, 0.1 mg/kg of tradipitant or vehicle solution is administered orally and then 2, 4, or 7 hours later, 0.1 nmol of GR73632 is administered into the cerebral ventricle as described above. Vocalizations are recorded and quantified as indicated above. Vehicle solutions are either CMC (FIG. 4 data) or an ethanol/emulphor solution (FIGS. 5 and 6). Data is analyzed using one-tailed t-tests.

healthy subjects = test: Gamma scintigraphic gastrointestinal motility study in healthy subjects; assay type: in vivo, human; conditions: single oral dose 20 mg or 200 mg
Protocol: A single-center, randomized, double-blind, placebo-controlled study is conducted to investigate the effect of tradipitant on small bowel transit time. A total of 15 healthy subjects, 12 men and 3 women, between the ages of 19 and 63 years are enrolled in the study and receive at least 1 dose of study medication. A total of 13 subjects complete the study. Subjects are randomized to receive 20 mg of tradipitant, 200 mg of tradipitant, or placebo as a single oral dose within each of 3 periods, co-administered with a capsule radiolabeled with a maximum of 1MBq ^111In. Four hours post-dose, all subjects also receive a second capsule radiolabeled with a maximum of 4MBq ^99mTc. Each subject receives all 3 doses during the study. For all dosing regimens, in vivo gamma scintigraphic studies are performed at predetermined intervals, and the following scintigraphic parameters are analyzed: onset and completion of gastric emptying, onset and completion of colon arrival, initiation and completion of small bowel transit, and initial and complete disintegration of the capsule (anatomical location and time).

[3] = tested on: patients with gastroparesis; test: Phase II gastroparesis study, open label extension (Example 4); assay type: in vivo, human
Description: In a phase II study of tradipitant in patients with gastroparesis, participants initially enter 4 week screening period prior to treatment with tradipitant, during which they answer a daily symptom questionnaire rating their nausea severity on a scale of 0 to 5, in which 0 represents no nausea, 1 represents very mild nausea, 2 represents mild nausea, 3 represents moderate nausea, 4 represents severe nausea, and 5 represents very severe nausea. After the 4 week screening period, patients enter the double blind randomized portion of the study, in which they receive either tradipitant 85 mg bid, or placebo. After 4 weeks of blinded study drug treatment, patients have the opportunity to enter an additional 8 week open label extension, during which each subject receives tradipitant 85 mg bid. 64 subjects participate in at least one week of the open label tradipitant dosing portion of the study. The average daily diarized nausea scores are reported for subjects during the 4 week screening period and during the up to 8 week open label extension.

[4] = ITT Population, 85 mg bid, n = 73
[5] = Vomiting Population, 85 mg bid, n = 58

T1 sequence (P30547 whole entry): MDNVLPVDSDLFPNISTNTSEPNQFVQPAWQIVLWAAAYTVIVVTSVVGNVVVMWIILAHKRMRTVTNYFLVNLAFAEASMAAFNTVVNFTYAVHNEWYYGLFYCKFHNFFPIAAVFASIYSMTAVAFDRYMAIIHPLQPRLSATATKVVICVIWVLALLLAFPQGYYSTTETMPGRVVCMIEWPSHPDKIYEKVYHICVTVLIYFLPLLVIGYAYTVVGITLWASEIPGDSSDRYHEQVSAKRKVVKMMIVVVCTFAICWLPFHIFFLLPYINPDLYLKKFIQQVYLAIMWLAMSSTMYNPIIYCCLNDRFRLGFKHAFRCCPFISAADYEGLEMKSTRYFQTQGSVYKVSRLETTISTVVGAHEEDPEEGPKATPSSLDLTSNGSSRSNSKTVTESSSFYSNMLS

## O=C(c1ccccc1Cl)c1cccnc1-c1nnn(Cc2cc(C(F)(F)F)cc(C(F)(F)F)c2)c1-c1ccncc1 [Tradipitant, {2-[1-(3,5-bistrifluoromethylbenzyl)-5-pyridin-4-yl-1H-[1,2,3]triazol-4-yl]-pyridin-3-yl}-(2-chlorophenyl)-methanone]
[1]; 0.3 mg/kg oral
  Concentration of tradipitant in plasma: 90.93 ng/mL and 83.38 ng/mL and 22.59 ng/mL and 51.20 ng/mL and 41.33 ng/mL
[1]; 1.0 mg/kg oral
  Concentration of tradipitant in plasma: 240.84 ng/mL and 100.97 ng/mL and 61.56 ng/mL and 175.58 ng/mL and 86.49 ng/mL
[1]; 3.0 mg/kg oral
  Concentration of tradipitant in plasma: 316.20 ng/mL and 682.91 ng/mL and 119.79 ng/mL and 122.73 ng/mL and 256.58 ng/mL
[2]; 85 mg bid, confirms prior studies' findings
  tolerability: well tolerated
[2]; [4]
  CGI-S, change from baseline: −1.13
  DD-% Nausea Free Days, change from baseline: 28.8%
  DD-Nausea (Daily Diary Nausea Score, 0-5), change from baseline: −1.25
  GCSI, change from baseline: −0.93
  PAGI-SYM, change from baseline: −0.93
  PGI-C: 2.66
[2]; ITT Population, 85 mg bid, n = 73, listed as tradipitant
  DD-Nausea (Daily Diary Nausea Score, 0-5), change from baseline: −1.2
[2]; [5]
  CGI-S, change from baseline: −1.24
  DD-% Nausea Free Days, change from baseline: 32.3%
  DD-Nausea (Daily Diary Nausea Score, 0-5), change from baseline: −1.43
  GCSI, change from baseline: −1.10
  PAGI-SYM, change from baseline: −1.06
  PGI-C: 2.52
[2]; Vomiting Population, 85 mg bid, n = 58, listed as tradipitant
  DD-Nausea (Daily Diary Nausea Score, 0-5), change from baseline: −1.4
[2]; Week 1 vs Week 2
  Daily Diary Nausea Weekly Average, Effect size estimate: 0.314
[2]; Week 1 vs Week 3
  Daily Diary Nausea Weekly Average, Effect size estimate: 0.5556
[2]; Week 1 vs Week 4
  Daily Diary Nausea Weekly Average, Effect size estimate: 0.592
[2]; Week 2 vs Week 3
  Daily Diary Nausea Weekly Average, Effect size estimate: 0.2416
[2]; Week 2 vs Week 4
  Daily Diary Nausea Weekly Average, Effect size estimate: 0.278
[2]; Week 3 vs Week 4
  Daily Diary Nausea Weekly Average, Effect size estimate: 0.03647
NK-1 receptor; 0.1 mg/kg oral, 7 hours after administration
  suppression of agonist-induced vocalization: significantly active
NK-1 receptor; at and below 0.1 mg/kg
  inhibitory activity on vocalization: retains significant inhibitory activity
NK-1 receptor; oral, 10, 1.0, 0.1 and 0.05 mg/kg (each p<0.001)
  inhibition of agonist-induced vocalization: significant inhibition
NK-1 receptor; oral, guinea pig
  duration of activity: exceeds 7 hours
  minimum effective dose (MED), inhibition of vocalization: 0.025 mg/kg
Healthy subjects
  effect on small bowel transit time: statistically significant effect
Healthy subjects; study underpowered
  effect on gastric emptying: No effect
[3]; 0 to 5 scale, open label 85 mg bid for 1 to 8 weeks, 64 patients
  mean daily nausea score: about 1.63
[3]; 0 to 5 scale, open label extension 85 mg bid, 64 subjects
  median daily nausea score: 1.35
[3]; 85 mg bid
  change of average percentage of nausea-free days compared to pre-treatment: doubled or greater
  reduction of average daily nausea scores compared to pre-treatment: reduced by approximately one half
[3]; open label extension 85 mg bid
  mean percentage of days nausea-free: 45.91%
  median percentage of nausea-free days: 49.11%
